Where two headings read alike, the source gives them in different places.
Key:
[1] = tested on: HeLa MKYP cells; assay: Human mitophagy assay (HeLa mKeima assay, FACS); format: cell-based
Method: Briefly, HeLa MKYP cells were plated at 10,000 cells/well in 96 well plates along with compounds at various concentrations. Following 16 hrs of incubation, cells were treated with 1 uM FCCP/oligomycin for 6 hours, then analyzed via FACS for the presence of mitochondria in lysosomes (as determined by an emissions spectrum shift from the pH-sensitive mtKeima tag).
Briefly, HeLa cells expressing a mitophagy indicator (mtKeima) protein were treated with […] of FCCP and Oligomycin followed by the specified dose of compound, then analyzed by FACS to quantify the percentage of cells undergoing mitophagy.

[2] = tested on: HeLa MKYP cells; assay: Cell death measured by DAPI staining, with 1 μM FCCP/oligomycin or no toxin (no FO); format: cell-based; details: for Max cell death at 25 μM compound, 1 uM FO (%) / Cell death at 25 μM (no FO) (%): 25 μM compound
Method: EP-0035985, EP-0037821, EP-0038098, and EP-0038099 in the presence of 1 μM FCCP/oligomycin or with no toxin (no FO) for 6 hrs. H2O2 treatment was performed as a control for cell death as measured by DAPI staining.
EP-0035985, EP-0038461, EP-0038463, and EP-0038503 in the presence of 1 μM FCCP/oligomycin or with no toxin (no FO) for 6.5 hrs. H2O2 treatment was performed as a control for cell death as measured by DAPI staining.
EP-0035985, EP-0038504, EP-0038508, and EP-0038521 in the presence of 1 μM FCCP/oligomycin or with no toxin (no FO) for 6.5 hrs. H2O2 treatment was performed as a control for cell death as measured by DAPI staining.
EP-0035985, EP-0038461, EP-0038463, EP-0038503, EP-0038504, EP-0038508, and EP-0038521 in the presence of 1 μM FCCP/oligomycin or with no toxin (no FO) for 6.5 hrs. H2O2 treatment was performed as a control for cell death as measured by DAPI staining.

[3] = read-out: Mitophagy induction EC50
[4] = Homo sapiens, HeLa, read-out: Mitophagy induction EC50
[5] = Homo sapiens, HeLa, HeLa mKeima assay, read-out: Mitophagy EC50 (HeLa mKeima assay)

| Compound | EC50 [1, 3] [µM] | Highest safe dose (cytotoxicity; no FO; safe means DAPI+ <20%) [2] [µM] | Max % death with 1 μM FO [2] [%] | EC50 [1, 4] [µM] | EC50 [1, 5] [µM] | Max cell death at 25 μM compound, 1 uM FO (%) [2] [%] | Cell death at 25 μM (no FO) (%) [2] [%] |
| --- | --- | --- | --- | --- | --- | --- | --- |
| C[S@](=N)(=O)C1CN([C@H]2COc3ccccc3[C@@H]2Nc2ncnc3[nH]c(C(F)(F)F)cc23)C1 (single isomer, unassigned) [EP-0041495] | 2.52 | 25.0 | 2.9 | – | – | – | – |
| C[S@](=N)(=O)C1CN([C@H]2COc3ccccc3[C@@H]2Nc2ncnc3[nH]c(C(F)(F)F)cc23)C1 (single isomer, unassigned) [EP-0041497] | 22 | 25.0 | 2.6 | – | – | – | – |
| C[S@@](=N)(=O)C1CN(C2COc3ccccc3C2Nc2ncnc3[nH]c(C(F)(F)F)cc23)C1 (single isomer, unassigned) [EP-0041498] | – | 25.0 | 3.7 | > 25 | – | – | – |
| COC[C@@H]1CCN(C2COc3ccccc3C2Nc2ncnc3[nH]c(C4CC4)cc23)C1 (single isomer, unassigned) [EP-0041515] | 5.06 | 25.0 | 5.6 | – | – | – | – |
| FC(F)(F)c1cc2c(N[C@H]3c4ccccc4OC[C@@H]3N3CCC4(COC4)C3)ncnc2[nH]1 (single isomer, unassigned) [EP-0041516] | – | 25.0 | 11.8 | 3.24 | – | – | – |
| OC[C@H]1CN([C@H]2COc3ccccc3[C@@H]2Nc2ncnc3[nH]c(C(F)(F)F)cc23)CCO1 (single isomer, unassigned) [EP-0041558] | 1.42 | 25.0 | 10.6 | – | – | – | – |
| OC[C@H]1CN([C@H]2COc3ccccc3[C@@H]2Nc2ncnc3[nH]c(C(F)(F)F)cc23)CCO1 (single isomer, unassigned) [EP-0041559] | 10.3 | 25.0 | 3.7 | – | – | – | – |
| OC[C@@H]1CN([C@H]2COc3ccccc3[C@@H]2Nc2ncnc3[nH]c(C(F)(F)F)cc23)CCO1 (single isomer, unassigned) [EP-0041585] | – | 25.0 | 6.6 | 16.1 | – | – | – |
| OC[C@@H]1CN([C@H]2COc3ccccc3[C@@H]2Nc2ncnc3[nH]c(C(F)(F)F)cc23)CCO1 (single isomer, unassigned) [EP-0041586] | 9.59 | 25.0 | 10.7 | – | – | – | – |
| c1ccc2c(c1)OCC(N1CC3CCOC3C1)C2Nc1ncnc2[nH]c(C3CC3)cc12 (single isomer, unassigned) [EP-0041667] | > 25 | 25.0 | 3.1 | – | – | – | – |
| c1ccc2c(c1)OCC(N1CC3CCOC3C1)C2Nc1ncnc2[nH]c(C3CC3)cc12 (single isomer, unassigned) [EP-0041669] | > 25 | 25.0 | 2.5 | – | – | – | – |
| Fc1ccc2c(c1)CC[C@@H](N1CCOCC1)[C@@H]2Nc1ncnc2[nH]c(C3CC3)cc12 [EP-0039747] | – | 25.0 | 24.4 | 9.31 | 9.31 | 24.4 | 12.9 |
| N#Cc1cn([C@@H]2CCc3ccccc3[C@@H]2Nc2ncnc3[nH]c(C(F)(F)F)cc23)cn1 [EP-0039748] | – | 25.0 | 6.5 | 8.07 | – | – | – |
| FC(F)(F)c1cc2c(N[C@H]3c4ccccc4C[C@@H]3N3C[C@H]4COC[C@H]4C3)ncnc2[nH]1 [EP-0039754] | – | 25.0 | 17.7 | > 25 | – | – | – |
| c1ccc2c(c1)C[C@H](N1C[C@H]3COC[C@H]3C1)[C@H]2Nc1ncnc2[nH]c(C3CC3)cc12 [EP-0040075] | – | 25.0 | 6.5 | > 25 | – | – | – |
| FC(F)(F)c1cc2c(N[C@H]3c4ccccc4OC[C@@H]3N3CCOCC3)ncnc2[nH]1 [EP-0040078] | – | 25.0 | 18.5 | 1.9 | 1.77 | 18 | 5.92 |
| FC(F)(F)c1cc2c(N[C@H]3c4ccccc4OC[C@H]3N3CCOCC3)ncnc2[nH]1 [EP-0040084] | – | 25.0 | 3.7 | 15.6 | – | – | – |

— patent publication US20240018146A1, “COMPOSITIONS AND METHODS OF USING THE SAME FOR TREATMENT OF NEURODEGENERATIVE AND MITOCHONDRIAL DISEASE” (MITOKININ, INC., priority 2020, published 2024)
